Patent publication US20240140991A1, “ANTIBIOTIC NATURAL PRODUCT ANALOGUES” (THE QUEEN'S UNIVERSITY OF BELFAST, priority 2021, published 2024)
In brackets after ≈: the same amount, converted by molar mass. Positions of bridges follow the written chain, without caps; N, C: chain ends. Non-standard residues stand in square brackets, D forms with d. Residues, ends and D or L forms follow the SMILES beside them. ξ: configuration not given here. *: point of attachment. Palmitoyl = CCCCCCCCCCCCCCCC(=O)*; Hexanoyl(4ξ-Me) = CCC(C)CCC(=O)*; X2 = CC(=O)[C@H](CC(N)=O)C(=O)*; Lauroyl = CCCCCCCCCCCC(=O)*; Decanoyl = CCCCCCCCCC(=O)*; dOrn = NCCC[C@@H](N)C(=O)O; Octanoyl = CCCCCCCC(=O)*; Orn = NCCC[C@H](N)C(=O)O; Hexanoyl = CCCCCC(=O)*; OAll = C=CCO*

Legend:
E. coli = assay type: cell-based
Protocol: (§1) Minimum inhibitory concentration (MIC) was determined by broth microdilution according to CLSI guidelines. Blood agar plates were inoculated with glycerol stocks of Escherichia coli ATCC 25922, E. coli ATCC 25922 MCR-1, E. coli MCR-1 (clinical isolate from Utrecht Medical Center, NL), E. coli EQAS MCR-2 (clinical isolate from Wageningen University and Research, NL), Kiebsielia pneumoniae ATCC 11228, K. pneumoniae ATCC 13883, K. pneumonia 2048 (clinical isolate from Vrije Universiteit Amsterdam Medical Center, NL), K. pneumonia JS-123 (clinical isolate from Utrecht Medical Center, NL), Acinetobacter baumannii ATCC 17961, A. baumannil ATCC 17978, A. baumannii 2018-006 (clinical isolate from Rijksinstituut voor Volksgezondheid en Milieu, NL), A. baumannii MDR (clinical isolate from Vrije Universiteit Amsterdam Medical Center, NL), Pseudomonas aeruginosa ATCC 27853, P. aeruginosa PAO1, P. aeruginosa NRZ-03961 (Reference strain from Das Nationale Referenzzentrum für gramnegative Krankenhauserreger, DE), P. aeruginosa M-120 (clinical isolate from Leiden University Medical Center, NL) and Staphylococcus aureus USA300 (clinical isolate from Texas Children's Hospitalm, USA). E. coli 25922 MCR1 was grown on LB agar supplemented with kanamycin. The inoculated agar plates were then incubated for 16 hours at 37° C. Individually grown colonies were subsequently used to inoculate 3 mL aliquots of TSB that were then incubated at 37° C. with shaking at 220 rpm. In parallel, the compounds to be assessed were serially diluted with Mueller-Hinton broth (MHB) in polypropylene 96-well plates (50 μL in each well). Once the OD600 of the bacterial suspensions reached 0.5, the bacteria were diluted with MHB (final concentration 2×10^5 CFU mL^−1) and added to the microplates containing the test compounds (50 μL to each well, final volume: 100 μL). The well-plates were sealed with an adhesive membrane and after 16 hours of incubation at 37° C. with shaking at 220 rpm the wells were visually inspected for bacterial growth. MIC values were defined as the lowest concentration of the compound that prevented visible growth of bacteria.
MIC values were determined for the lipid analogues of brevicidine.
MIC values were determined for the position 9 analogues of linear brevicidine.

[1] = test system: Escherichia coli ATCC 25922; assay type: cell-based; details: ATCC 25922
Procedure, shortened: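 Broth microdilution in MHB per CLSI; inoculum 2×10^5 CFU mL^−1 from log-phase TSB cultures at OD600 0.5. Plates incubated 16 hours at 37° C with shaking at 220 rpm. MIC is the lowest concentration preventing visible growth.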

K. pneumoniae ATCC 11228 = assay type: cell-based, Klebsiella pneumoniae; details: ATCC 11228
Protocol: as §1

A. baumannii ATCC 17978 = assay type: cell-based, Acinetobacter baumannii; details: ATCC 17978
Protocol: as §1

P. aeruginosa PAO1 = assay type: cell-based, Pseudomonas aeruginosa; details: PAO1
Protocol: as §1

Row | Compound | E. coli MIC (E. coli) | other results
1 | CC[C@H](C)[C@@H]1NC(=O)[C@@H](NC(=O)[C@H](Cc2c[nH]c3ccccc23)NC(=O)[C@@H](CCCN)NC(=O)CNC(=O)[C@H](CCCN)NC(=O)[C@@H](CCCN)NC(=O)[C@@H](Cc2c[nH]c3ccccc23)NC(=O)[C@@H](Cc2ccc(O)cc2)NC(=O)[C@@H](CC(N)=O)C(C)=O)[C@@H](C)OC(=O)[C@H](CO)NC(=O)CNC1=O [Brev-C2] (X2-[dY][dW][dOrn][Orn]G[dOrn]WTIGS; ester 8-C) | 50 µg/mL | –
2 | CCCCCCCC(=O)N[C@H](CO)C(=O)N[C@H](Cc1ccc(O)cc1)C(=O)N[C@H](Cc1c[nH]c2ccccc12)C(=O)N[C@H](CCCN)C(=O)N[C@@H](CCCN)C(=O)NCC(=O)N[C@H](CCCN)C(=O)N[C@@H](Cc1c[nH]c2ccccc12)C(=O)N[C@@H]1C(=O)N[C@@H]([C@@H](C)CC)C(=O)N[C@@H](CC(N)=O)C(=O)NCC(=O)NCC(=O)O[C@@H]1C [Compound C8] (Octanoyl-[dS][dY][dW][dOrn][Orn]G[dOrn]WTINGG; ester 9-C) | – | Minimum inhibitory concentration (MIC) [1]: 0.5 to 1 µg/mL; Minimum inhibitory concentration (MIC) (K. pneumoniae ATCC 11228): 0.5 to 1 µg/mL; Minimum inhibitory concentration (MIC) (A. baumannii ATCC 17978): 0.5 to 1 µg/mL; Minimum inhibitory concentration (MIC) (P. aeruginosa PAO1): 1 µg/mL (≈ 0.629 µM)
3 | CCCCCCCCCC(=O)N[C@H](CO)C(=O)N[C@H](Cc1ccc(O)cc1)C(=O)N[C@H](Cc1c[nH]c2ccccc12)C(=O)N[C@H](CCCN)C(=O)N[C@@H](CCCN)C(=O)NCC(=O)N[C@H](CCCN)C(=O)N[C@@H](Cc1c[nH]c2ccccc12)C(=O)N[C@@H]1C(=O)N[C@@H]([C@@H](C)CC)C(=O)N[C@@H](CC(N)=O)C(=O)NCC(=O)NCC(=O)O[C@@H]1C [Compound C10] (Decanoyl-[dS][dY][dW][dOrn][Orn]G[dOrn]WTINGG; ester 9-C) | – | Minimum inhibitory concentration (MIC) [1]: 1 to 2 µg/mL; Minimum inhibitory concentration (MIC) (K. pneumoniae ATCC 11228): 1 µg/mL (≈ 0.618 µM); Minimum inhibitory concentration (MIC) (A. baumannii ATCC 17978): 1 µg/mL (≈ 0.618 µM); Minimum inhibitory concentration (MIC) (P. aeruginosa PAO1): 1 to 2 µg/mL
4 | CCCCCCCCCC(=O)N[C@H](CC(N)=O)C(=O)N[C@H](Cc1ccc(O)cc1)C(=O)N[C@H](Cc1c[nH]c2ccccc12)C(=O)N[C@H](CCCN)C(=O)N[C@@H](CCCN)C(=O)NCC(=O)N[C@H](CCCN)C(=O)N[C@@H](Cc1c[nH]c2ccccc12)C(=O)N[C@@H]1C(=O)N[C@@H]([C@@H](C)CC)C(=O)NCC(=O)N[C@@H](CO)C(=O)O[C@@H]1C [Brev-C10] (Decanoyl-[dN][dY][dW][dOrn][Orn]G[dOrn]WTIGS; ester 9-C) | 1.56 µg/mL | –
5 | CC[C@H](C)[C@@H]1NC(=O)[C@@H](NC(=O)[C@H](Cc2c[nH]c3ccccc23)NC(=O)[C@@H](CCCN)NC(=O)CNC(=O)[C@H](CCCN)NC(=O)[C@@H](CCCN)NC(=O)[C@@H](Cc2c[nH]c3ccccc23)NC(=O)[C@@H](Cc2ccc(O)cc2)NC(=O)[C@@H](CO)NC(C)=O)[C@@H](C)OC(=O)CNC(=O)CNC(=O)[C@H](CC(N)=O)NC1=O [Compound C2] (Ac-[dS][dY][dW][dOrn][Orn]G[dOrn]WTINGG; ester 9-C) | – | Minimum inhibitory concentration (MIC) [1]: 16 µg/mL (≈ 10.6 µM); Minimum inhibitory concentration (MIC) (K. pneumoniae ATCC 11228): 16 µg/mL (≈ 10.6 µM); Minimum inhibitory concentration (MIC) (A. baumannii ATCC 17978): 64 µg/mL (≈ 42.5 µM); Minimum inhibitory concentration (MIC) (P. aeruginosa PAO1): 16 µg/mL (≈ 10.6 µM)
6 | CCCCCCCCCCCC(=O)N[C@H](CC(N)=O)C(=O)N[C@H](Cc1ccc(O)cc1)C(=O)N[C@H](Cc1c[nH]c2ccccc12)C(=O)N[C@H](CCCN)C(=O)N[C@@H](CCCN)C(=O)NCC(=O)N[C@H](CCCN)C(=O)N[C@@H](Cc1c[nH]c2ccccc12)C(=O)N[C@@H]1C(=O)N[C@@H]([C@@H](C)CC)C(=O)NCC(=O)N[C@@H](CO)C(=O)O[C@@H]1C [Brev-C12] (Lauroyl-[dN][dY][dW][dOrn][Orn]G[dOrn]WTIGS; ester 9-C) | 3.12 µg/mL | –
7 | CCC(C)CCC(=O)N[C@H](CC(N)=O)C(=O)N[C@H](Cc1ccc(O)cc1)C(=O)N[C@H](Cc1c[nH]c2ccccc12)C(=O)N[C@H](CCCN)C(=O)N[C@@H](CCCN)C(=O)NCC(=O)N[C@H](CCCN)C(=O)N[C@@H](Cc1c[nH]c2ccccc12)C(=O)N[C@@H](CC(=O)O)C(=O)N[C@H](C(=O)NCC(N)=O)[C@@H](C)CC (stereo partly drawn) [Und(9-Asp)-NH2] ({Hexanoyl(4ξ-Me)}-[dN][dY][dW][dOrn][Orn]G[dOrn]WDIG-NH2) | 12.5 µg/mL | –
8 | CCC(C)CCC(=O)N[C@H](CC(N)=O)C(=O)N[C@H](Cc1ccc(O)cc1)C(=O)N[C@H](Cc1c[nH]c2ccccc12)C(=O)N[C@H](CCCN)C(=O)N[C@@H](CCCN)C(=O)NCC(=O)N[C@H](CCCN)C(=O)N[C@@H](Cc1c[nH]c2ccccc12)C(=O)N[C@@H](Cc1c[nH]c2ccccc12)C(=O)N[C@H](C(=O)NCC(N)=O)[C@@H](C)CC (stereo partly drawn) [Und(9-Trp)-NH2] ({Hexanoyl(4ξ-Me)}-[dN][dY][dW][dOrn][Orn]G[dOrn]WWIG-NH2) | 0.78 µg/mL | –
9 | CC[C@H](C)[C@@H]1NC(=O)[C@@H](NC(=O)[C@H](Cc2c[nH]c3ccccc23)NC(=O)[C@@H](CCCN)NC(=O)CNC(=O)[C@H](CCCN)NC(=O)[C@@H](CCCN)NC(=O)[C@@H](Cc2c[nH]c3ccccc23)NC(=O)[C@@H](Cc2ccc(O)cc2)NC(=O)[C@H](N)CC(N)=O)[C@@H](C)OC(=O)[C@H](CO)NC(=O)CNC1=O [Brev-NH2] (H-[dN][dY][dW][dOrn][Orn]G[dOrn]WTIGS; ester 9-C) | 50 µg/mL | –
10 | CCC(C)CCC(=O)N[C@H](CC(N)=O)C(=O)N[C@H](Cc1ccc(O)cc1)C(=O)N[C@H](Cc1c[nH]c2ccccc12)C(=O)N[C@H](CCCN)C(=O)N[C@@H](CCCN)C(=O)NCC(=O)N[C@H](CCCN)C(=O)N[C@@H](Cc1c[nH]c2ccccc12)C(=O)N[C@@H](CCC(N)=O)C(=O)N[C@H](C(=O)NCC(N)=O)[C@@H](C)CC (stereo partly drawn) [Und(9-Gln)-NH2] ({Hexanoyl(4ξ-Me)}-[dN][dY][dW][dOrn][Orn]G[dOrn]WQIG-NH2) | 0.78 µg/mL | –
11 | CCCCCCCCCCCCCCCC(=O)N[C@H](CC(N)=O)C(=O)N[C@H](Cc1ccc(O)cc1)C(=O)N[C@H](Cc1c[nH]c2ccccc12)C(=O)N[C@H](CCCN)C(=O)N[C@@H](CCCN)C(=O)NCC(=O)N[C@H](CCCN)C(=O)N[C@@H](Cc1c[nH]c2ccccc12)C(=O)N[C@@H]1C(=O)N[C@@H]([C@@H](C)CC)C(=O)NCC(=O)N[C@@H](CO)C(=O)O[C@@H]1C [Brev-C16] (Palmitoyl-[dN][dY][dW][dOrn][Orn]G[dOrn]WTIGS; ester 9-C) | >100 µg/mL | –
12 | CCCCCC(=O)N[C@H](CC(N)=O)C(=O)N[C@H](Cc1ccc(O)cc1)C(=O)N[C@H](Cc1c[nH]c2ccccc12)C(=O)N[C@H](CCCN)C(=O)N[C@@H](CCCN)C(=O)NCC(=O)N[C@H](CCCN)C(=O)N[C@@H](Cc1c[nH]c2ccccc12)C(=O)N[C@@H]1C(=O)N[C@@H]([C@@H](C)CC)C(=O)NCC(=O)N[C@@H](CO)C(=O)O[C@@H]1C [Brev-C6] (Hexanoyl-[dN][dY][dW][dOrn][Orn]G[dOrn]WTIGS; ester 9-C) | 25 µg/mL | –
13 | C=CCOC(=O)CC[C@H](NC(=O)[C@H](Cc1c[nH]c2ccccc12)NC(=O)[C@@H](CCCN)NC(=O)CNC(=O)[C@H](CCCN)NC(=O)[C@@H](CCCN)NC(=O)[C@@H](Cc1c[nH]c2ccccc12)NC(=O)[C@@H](Cc1ccc(O)cc1)NC(=O)[C@@H](CC(N)=O)NC(=O)CCC(C)CC)C(=O)N[C@H](C(=O)NCC(N)=O)[C@@H](C)CC (stereo partly drawn) [Und(9-AllGlu)-NH2] ({Hexanoyl(4ξ-Me)}-[dN][dY][dW][dOrn][Orn]G[dOrn]WE(OAll)IG-NH2) | 0.4 µg/mL | –
14 | CCCCCCCC(=O)N[C@H](CC(N)=O)C(=O)N[C@H](Cc1ccc(O)cc1)C(=O)N[C@H](Cc1c[nH]c2ccccc12)C(=O)N[C@H](CCCN)C(=O)N[C@@H](CCCN)C(=O)NCC(=O)N[C@H](CCCN)C(=O)N[C@@H](Cc1c[nH]c2ccccc12)C(=O)N[C@@H]1C(=O)N[C@@H]([C@@H](C)CC)C(=O)NCC(=O)N[C@@H](CO)C(=O)O[C@@H]1C [Brev-C8] (Octanoyl-[dN][dY][dW][dOrn][Orn]G[dOrn]WTIGS; ester 9-C) | 25 µg/mL | –
15 | CCC(C)CCC(=O)N[C@H](CC(N)=O)C(=O)N[C@H](Cc1ccc(O)cc1)C(=O)N[C@H](Cc1c[nH]c2ccccc12)C(=O)N[C@H](CCCN)C(=O)N[C@@H](CCCN)C(=O)NCC(=O)N[C@H](CCCN)C(=O)N[C@@H](Cc1c[nH]c2ccccc12)C(=O)N[C@@H](Cc1ccccc1)C(=O)N[C@H](C(=O)NCC(N)=O)[C@@H](C)CC (stereo partly drawn) [Und(9-Phe)-NH2] ({Hexanoyl(4ξ-Me)}-[dN][dY][dW][dOrn][Orn]G[dOrn]WFIG-NH2) | <0.20 µg/mL | –
